Experimental findings from patent US11254651B2, “Histone methyltransferase inhibitors” (GLOBAL BLOOD THERAPEUTICS, INC., priority 2016, dated 2022) are described below.

The assay relates to HGS tumor model. Kind of assay: anti-tumor activity in HGS tumor model. The class given is in vivo. To be noted: animals treated with 20/kg of compound.
Text: […]

Take `C=CC(=O)N1CCN(CCCn2c(=O)c(-c3c(Cl)c(OC)cc(OC)c3Cl)cc3cnc(NC)nc32)CC1` [8-(3-(4-acryloylpiperazin-1-yl)propyl)-6-(2,6-dichloro-3,5-dimethoxyphenyl)-2-(methylamino)pyrido[2,3-d]pyrimidin-7(8H)-one]: the “antitumor activity” value is “significant antitumor activity and induced tumor regression”. This compound yielded a tumor size (day 42 after inoculation) of 55 mm3.
